Four molecules from patent publication US9695148B2, “2-pyridone compound” (TAISHO PHARMACEUTICAL CO., LTD., priority 2012, dated 2017) can be followed below.

The structures appear in SMILES notation.

One experiment relates to C57BL6/J mice. The experiment is described as follows: Hypoglycemia test using C57BL6/J mice. It is filed as in vivo. Conditions: oral, ad libitum fed C57BL6/J mice, plasma glucose AUC 0-6 hours vs control group. Here is the method: The test to verify the hypoglycemic effect of the test compounds was carried out in accordance with a method commonly used and represented by the method of Grimsby et. al (Science 301: 370-373, 2003).
The body weight of C57BL6/J mice (N=6), who were ad libitum fed before the test, was measured. The test compound was suspended or dissolved in the base to be administered (0.5% methyl cellulose) at a concentration of 0.06 to 20 mg/mL. The mice were orally administered with 5 mL/kg of a drug solution (equivalent to 0.3 to 100 mg/kg of the test compound) or control (only the base to be administered). About 60 μL of blood was collected from the tail vein using a capillary tube immediately before administration of the test compound and 0.5, 1, 2, 4 and 6 hours after administration of the test compound. The collected blood was centrifuged and subsequently measured for the plasma glucose concentration. The area under the curve (AUC) was calculated from changes over time in the plasma glucose concentration after administration of the test compound, and a reduction rate (%) to AUC of the control group was calculated. The dose at which an AUC decreasing percentage was 20% (ED20 value; mg/kg) was calculated from the dose response curve having the AUC reduction rate plotted on the vertical axis and the dose plotted on the horizontal axis.

The target in another experiment is T1, human liver GK (Homo sapiens, UniProt P35557).
T1 construct: GST (glutathione S-transferase) (N); made in house; host or cells: E. coli
T1 sequence (P35557 1-466 isoform P35557-2): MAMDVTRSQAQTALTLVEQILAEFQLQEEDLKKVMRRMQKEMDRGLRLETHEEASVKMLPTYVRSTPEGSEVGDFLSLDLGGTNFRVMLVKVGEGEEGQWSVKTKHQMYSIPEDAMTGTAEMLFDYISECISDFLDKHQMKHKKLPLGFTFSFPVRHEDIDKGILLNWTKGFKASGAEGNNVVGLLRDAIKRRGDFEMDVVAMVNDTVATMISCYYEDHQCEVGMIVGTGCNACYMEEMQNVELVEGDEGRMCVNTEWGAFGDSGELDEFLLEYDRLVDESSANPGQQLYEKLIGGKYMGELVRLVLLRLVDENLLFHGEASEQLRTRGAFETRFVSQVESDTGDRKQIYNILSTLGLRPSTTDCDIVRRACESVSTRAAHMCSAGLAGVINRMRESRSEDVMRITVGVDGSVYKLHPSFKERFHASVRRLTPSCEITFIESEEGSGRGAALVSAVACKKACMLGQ
The experiment is described as follows: GK activation test. It is filed as biochemical. The note with it: GST-fused human liver GK, 4 mM glucose, 2 mM ATP, absorbance at 405 nm after 15 minutes; read-out: EC50 (test compound concentration needed to activate 50% of the maximum activation ability). Here is the method: The GK activation test for the test compounds was carried out by the method of Van Schaftingen et al. (Eur. J. Biochem. 179:179-184, 1989) with partial modifications. The GK activity was measured by the change in the absorbance based on an amount of thio-NADH, which is a reduced form product converted from thio-NAD+ (thionicothinamide-adeninedinucleotide) when dehydrogenating glucose 6-phosphate, produced by GK using glucose as a matrix, with G6PDH (glucose-6-phosphate dehydrogenase).
The enzyme source used in this assay, human liver GK, was expressed in E. coli as a fusion protein with GST (glutathione S-transferase) added to the amino terminus and was purified using Glutathione Sepharose 4B (Amersham Biosciences).
The test was carried out using flat-bottom 96-well half area microplates (Corning). A solution of the test compound in dimethyl sulfoxide (DMSO) at a final concentration of 1% in DMSO and DMSO as a control were added to each well of the plates. Further, 25 mM Hepes-KOH (pH=7.1), 25 mM KCl, 2 mM MgCl2, 2 mM thio-NAD+, 4 mM glucose, 1 mM DTT (dithiothreitol), 0.01 units/μL G6PDH and 2 μg/mL human liver GK were added as the final concentrations, respectively, to each of the wells. Subsequently, ATP was added to each of the wells to give the final concentration of 2 mM, and the reaction was started. The microplates were allowed to stand at room temperature. After 15 minutes from the start of reaction, the absorbance at 405 nm was measured using an absorption spectrometer for microplate.
The GK activity maximally activated by the test compound was taken as the maximum activation ability, and the test compound concentration (nM) needed to activate 50% of that maximum activation ability was expressed as EC50.

For `CC(F)(F)c1ccc([C@@H](C[C@H]2CCC(=O)N2)c2ccc(C3CC3)c(=O)[nH]2)cc1` (single isomer, unassigned) [Compound B], in the experiment with C57BL6/J mice, the “ED20 (dose at which the plasma glucose AUC decreasing percentage was 20%)” value is recorded as 15.6 mg/kg. Moreover, the EC50 on human liver GK was found to be 1330 nM.

`O=C1CC[C@H](C[C@H](c2ccc(C(F)F)cc2)c2ccc(C3CC3)c(=O)[nH]2)N1` [Compound C]: in the experiment on C57BL6/J mice, the “ED20 (dose at which the plasma glucose AUC decreasing percentage was 20%)” value was 32.0 mg/kg. In addition, the EC50 on human liver GK came to 597 nM.

Take `CCc1ccc([C@@H](C[C@H]2CCC(=O)N2)c2ccc(C3CC3)c(=O)[nH]2)cc1` [Compound A]: the “ED20 (dose at which the plasma glucose AUC decreasing percentage was 20%)” value in the experiment with C57BL6/J mice was found to be 11.5 mg/kg. Further, the EC50 at human liver GK worked out at 520 nM.

As for `CC(F)(F)c1ccc([C@@H](C[C@H]2CCC(=O)N2)c2ccc(C3CC3)c(=O)[nH]2)cc1` [Compound [1], 3-cyclopropyl-6-{(1R)-1-[4-(1,1-difluoroethyl)phenyl]-2-[(2R)-5-oxopyrrolidin-2-yl]ethyl}pyridin-2(1H)-one], the “ED20 (dose at which the plasma glucose AUC decreasing percentage was 20%)” value in the experiment with C57BL6/J mice amounted to 4.2 mg/kg. For the same molecule, at human liver GK, the EC50 worked out at 295 nM.
